Literature values in patent US20250345298A1, “APOE4 CORRECTORS AND METHODS OF USE” (Alzheon, Inc., priority 2022, published 2025).

Structure (SMILES)	efficacy in Alzheimer's disease trials (human clinical trials for AD)	safety in human subjects
NCCCS(=O)(=O)O [Tramiprosate, 3-amino-1-propanesulfonic acid]	suggested efficacy in at least some patients	safe
CC(C)[C@H](N)C(=O)NCCCS(=O)(=O)O [ALZ-801, valyl-3-amino-1-propanesulfonic acid]		safe
